In US20140205566A1, “CYCLIC NUCLEUOSIDE DERIVATIVES AND USES THEREOF” (NOVARTIS AG, priority 2012, published 2014):
In brackets after ≈: the same amount, converted by molar mass.

Columns and labels:
Type in all cases: physicochemical
[1] = Solubility of crystalline Form I and Form II in various media
[2] = Bulk-state stability and thermal conversion of crystalline forms; conditions: one week when stored at 50° C., 50° C./75% RH and 80° C.
[3] = Slurry competition studies of crystalline forms in 2-propanol; conditions: 2-propanol at room temperature
[4] = Fasted state simulated intestinal fluid [pH 6.5]
[5] = Fed state simulated intestinal fluid [pH 5.8]

With `CCOC(=O)[C@H](C)N[P@@]1(=O)OC[C@H]2O[C@@H](n3cnc4c(OCC)nc(N)nc43)[C@](C)(F)[C@@H]2O1` [Form I, (S)-ethyl 2-(((2R,4aR,6R,7R,7aR)-6-(2-amino-6-ethoxy-9H-purin-9-yl)-7-fluoro-7-methyl-2-oxidotetrahydro-4H-furo[3,2-d][1,3,2]dioxaphosphinin-2-yl)amino)propanoate] the Solubility [1, 4] was 0.632 [6.36] mg/ml, the Solubility [1, 5] was 0.665 [5.80] mg/ml and the Solubility ([1]; Simulated gastric fluid [pH 2]) was 0.681 [2.11] mg/ml. The Solubility ([1]; Water) was 0.799 [3.82] mg/ml, the Solubility ([1]; pH 1 (0.1N HCl)) was 1.249 [1.39] mg/ml and the Solubility ([1]; pH 3 citrate buffer) was 0.816 [3.04] mg/ml. For the same molecule, the Solubility ([1]; pH 4.65 acetate buffer) was 0.687 [4.67] mg/ml, the Solubility ([1]; pH 6.8 phosphate buffer) was 0.794 [6.70] mg/ml and the “chemical and physical stability in bulk state” value [2] was “chemically and physically stable”.
Molecule `CCOC(=O)[C@H](C)N[P@@]1(=O)OC[C@H]2O[C@@H](n3cnc4c(OCC)nc(N)nc43)[C@](C)(F)[C@@H]2O1` [Form II, (S)-ethyl 2-(((2R,4aR,6R,7R,7aR)-6-(2-amino-6-ethoxy-9H-purin-9-yl)-7-fluoro-7-methyl-2-oxidotetrahydro-4H-furo[3,2-d][1,3,2]dioxaphosphinin-2-yl)amino)propanoate] has a Solubility [1, 4] of 0.0888 mg/mL (≈ 182 µM), a Solubility [1, 5] of 0.0995 mg/mL (≈ 204 µM) and a Solubility ([1]; Simulated gastric fluid [pH 2]) of 0.150 mg/mL (≈ 307 µM). For the same molecule, the Solubility ([1]; Water) was 0.0676 mg/mL (≈ 138 µM), the Solubility ([1]; pH 1 (0.1N HCl)) was 0.246 mg/mL (≈ 504 µM) and the Solubility ([1]; pH 3 citrate buffer) was 0.0740 mg/mL (≈ 152 µM). For the same molecule, the Solubility ([1]; pH 4.65 acetate buffer) was 0.0557 mg/mL (≈ 114 µM), the Solubility ([1]; pH 6.8 phosphate buffer) was 0.0551 mg/mL (≈ 113 µM) and the “chemical and physical stability in bulk state” value [2] was “chemically and physically stable”. The “relative thermodynamic stability (slurry competition)” value [3] was “thermodynamically more stable than Form I and III”.
